Values quoted from earlier work in patent US7354953B2, “Time-release compositions for delivery of [Cr3O(carboxylate)6(H2O)3]+” (University of Alabama, priority 2006, dated 2008).

Columns and labels:
[1] = in vivo
[2] = system: healthy and model type 2 diabetic rats
insulin receptor = insulin receptor (Homo sapiens, UniProt P06213)
rats = details: for effect on body mass, percentage lean or fat content, tissue size, blood variables: rats on regular diets
[3] = system: adult-onset diabetic patients
[4] = healthy and model type 2 diabetic rats

Chain of insulin receptor (P06213 763-1382 limits assumed, species assumed): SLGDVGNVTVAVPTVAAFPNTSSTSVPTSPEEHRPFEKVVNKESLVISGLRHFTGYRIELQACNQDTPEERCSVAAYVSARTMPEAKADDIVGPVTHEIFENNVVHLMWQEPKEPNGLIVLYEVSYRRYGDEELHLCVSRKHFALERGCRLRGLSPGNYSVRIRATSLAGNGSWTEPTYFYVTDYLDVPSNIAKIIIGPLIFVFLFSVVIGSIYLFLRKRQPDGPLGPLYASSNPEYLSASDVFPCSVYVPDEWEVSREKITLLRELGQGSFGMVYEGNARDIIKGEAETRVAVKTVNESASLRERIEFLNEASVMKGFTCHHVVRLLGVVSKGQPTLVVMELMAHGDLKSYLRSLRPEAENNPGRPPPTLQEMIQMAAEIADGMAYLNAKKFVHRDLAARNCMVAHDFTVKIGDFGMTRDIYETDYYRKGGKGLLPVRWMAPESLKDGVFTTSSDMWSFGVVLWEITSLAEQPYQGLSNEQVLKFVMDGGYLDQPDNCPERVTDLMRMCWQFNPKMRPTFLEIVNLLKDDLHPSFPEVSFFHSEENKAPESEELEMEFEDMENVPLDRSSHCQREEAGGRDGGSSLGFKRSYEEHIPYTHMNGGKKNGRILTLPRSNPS
Chain of insulin receptor (P06213 28-758 partner limits assumed, species assumed): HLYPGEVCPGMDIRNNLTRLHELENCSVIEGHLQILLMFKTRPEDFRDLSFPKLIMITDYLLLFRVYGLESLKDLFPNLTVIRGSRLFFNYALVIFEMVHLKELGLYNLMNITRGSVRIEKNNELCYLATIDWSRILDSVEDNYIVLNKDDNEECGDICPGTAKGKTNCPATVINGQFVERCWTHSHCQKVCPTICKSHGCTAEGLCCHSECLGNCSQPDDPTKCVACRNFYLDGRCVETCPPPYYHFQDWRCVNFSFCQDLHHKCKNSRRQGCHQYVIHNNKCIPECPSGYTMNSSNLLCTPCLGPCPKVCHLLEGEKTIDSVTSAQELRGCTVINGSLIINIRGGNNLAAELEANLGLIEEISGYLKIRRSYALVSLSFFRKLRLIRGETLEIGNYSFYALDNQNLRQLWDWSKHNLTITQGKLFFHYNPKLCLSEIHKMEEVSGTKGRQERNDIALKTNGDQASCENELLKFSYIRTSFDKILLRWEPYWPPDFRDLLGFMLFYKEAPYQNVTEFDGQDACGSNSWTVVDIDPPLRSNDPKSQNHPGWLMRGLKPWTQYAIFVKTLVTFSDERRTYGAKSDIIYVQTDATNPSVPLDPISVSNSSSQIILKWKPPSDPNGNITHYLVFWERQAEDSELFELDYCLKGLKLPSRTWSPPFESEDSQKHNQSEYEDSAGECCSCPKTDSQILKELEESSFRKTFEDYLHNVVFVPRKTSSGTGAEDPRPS

Molecule | absorption (rate and efficiency, in words) [1] | absorption efficiency [1] | DNA cleavage (DNA) | onset of colorectal cancer (colorectal cancer in rat) | glycated hemoglobin ([2]; diabetes models) | blood plasma cholesterol and triglycerides levels [2, 4] | insulin sensitivity [2, 4] | ability to stimulate insulin receptor kinase activity (insulin receptor) | effect on body mass, percentage lean or fat content, tissue size, blood variables (rats) | acute toxic effects (rats; rats, up to 1500 μg/kg diet for up to 24 weeks) | insulin requirements ([3]; 138 adult-onset diabetic patients) | glycemic control ([3]; 180 adult-onset diabetic patients) | chromosome damage (chromosome)
CCC(=O)[O-].CCC(=O)[O-].CCC(=O)[O-].CCC(=O)[O-].CCC(=O)[O-].CCC(=O)[O-].O.O.O.[Cr+3].[Cr+3].[Cr+3].[O-2] [Complex 1, [[Cr3O(O2CCH2CH3)6(H2O)3]^+] | absorbed very rapidly and very efficiently | 40-60% | not to lead to DNA cleavage | reduce the onset of colorectal cancer | reduce glycated hemoglobin | improve | increase insulin sensitivity | mimic the ability of LMWCr to stimulate insulin receptor kinase activity | – | – | – | – | –
[Cl][Cr]([Cl])[Cl] [chromium chloride] | – | – | – | – | – | – | – | – | no effect | – | – | – | –
chromium(III) tris(picolinate) [Cr(pic)3] | – | 0.5-2% | – | – | – | – | – | – | no effect | no acute toxic effects | reduced insulin requirements | improved glycemic control | cause chromosome damage
